Test results taken from PMC7845594, “Novel Immune Modulators Enhance Caenorhabditis elegans Resistance to Multiple Pathogens” (mSphere, 2021).

Key:
[1] = tested on: P. aeruginosa strain PA14; assay: MIC assay (bacterial growth, no worms); assay type: cell-based, Pseudomonas aeruginosa; conditions: for MIC: Pseudomonas aeruginosa, P. aeruginosa PA14, LB media, static culture, no worms, read-out: MIC; for MIC / EC: ratio of MIC to EC, P. aeruginosa PA14
Description: For the first round of characterization, 69 novel small molecules previously selected on the basis of their ability to improve C. elegans survival during exposure to P. aeruginosa in liquid ([14]) were tested for the ability to interfere with bacterial growth. MICs were determined for each compound by growing P. aeruginosa strain PA14 in static culture in 384-well plates with serial 2-fold dilutions of compounds. No worms were used in these assays. Next, effective rescue concentrations (EC; defined as the minimum concentration that results in statistically significant survival, compared to dimethyl sulfoxide [DMSO]) ([15], [18]) were determined for each compound using the standard P. aeruginosa liquid killing assay. Sterile glp-4(bn2) worms were used in all liquid-based assays to limit artifacts (i.e., unlaid eggs will hatch and cause matricide).
Plates were allowed to grow for 24 h at 37°C without shaking. Growth was scored visually on the basis of turbidity. At least three biological replicates were performed.

[2] = tested on: C. elegans host defense pathway genes; assay: nanoString expression of 115 immune- and stress-responsive genes; conditions: 100 μM LK molecules, 16 h
Description: The ratio of MIC to EC was determined for each of the 69 compounds.
Analysis of the expression of 115 immune- and stress-responsive genes using nanoString technology. Download Table S1, XLSX file, 0.02 MB.
For nanoString-based (nanoString Technologies, Seattle, WA) experiments, 2,000 wild-type, young adult worms were exposed to 100 μM LK molecules or DMSO control in S Basal medium in 6-well plates for 16 h. RNA purification and gene expression analysis were performed according to nanoString guidelines. Two biological replicates were tested for each condition.

[3] = tested on: glp-4(bn2) worms exposed to P. aeruginosa isolate PA2-61; assay: Liquid killing assay with cystic fibrosis isolate; assay type: in vivo, Caenorhabditis elegans; conditions: isolate PA2-61, serial 2-fold dilutions from 50 µM to 12.5 μM
Description: We also tested these strains against a P. aeruginosa isolate from a pediatric cystic fibrosis patient, P. aeruginosa PA2-61, that we previously characterized ([22]).
The minimum effective concentration was calculated from the lowest concentration that retained statistically significant rescue of glp-4(bn2) C. elegans, a temperature-sensitive sterile strain, from exposure to P. aeruginosa PA14. […] Compounds were added in serial 2-fold dilutions from 50 µM to 12.5 μM. *, P < 0.05; **, P < 0.01; ***, P < 0.001. P values were calculated using Student’s t test. At least six wells containing 20 worms each per condition per replicate were used for determination of liquid killing. EC values were calculated based on at least three biological replicates. Error bars represent the standard error of the mean.
Liquid killing of C. elegans was performed as previously described with some changes ([91]). In brief, an overnight culture of LB medium was inoculated with a single colony of Pseudomonas aeruginosa strain PA14. Then, 400 µl of culture was spread onto a 10-cm slow-kill agar plate ([91]) and grown for 24 h at 37°C, followed by 24 h at 25°C. Bacteria were scraped from the plate, resuspended in S Basal medium, and added to 384-well plates with small molecules dissolved in DMSO. Solution in wells contained a final concentration of 40% SK media, 59% S Basal medium, 1% DMSO, and small molecules. For all liquid-based killing assays, solvent control wells contained 1% DMSO. MgSO4 and CaCl2 (300 µM) and cholesterol (1.6 µg/ml) were added to aid in production of virulence factors. Worms were sorted into 384-well plates using a COPAS FlowSort (Union Biometrica, Holliston, MA), incubated at 25°C until the DMSO control was roughly 35 to 55% dead, washed four times using an EL406 microplate washer (BioTek, VT), and stained with 50 μl of Sytox Orange at 1 µM to fluorescently stain dead worms. Wells were imaged in bright-field and RFP channels using the BioTek Cytation5, followed by image analysis using the CellProfiler software package to calculate fraction of dead worms in each well. […]

CCN(CC)/N=N/c1ccc(C(=O)O)cc1 [LK35]
MIC [1]: > 908 µM | MIC / EC [1]: > 52.4 | B0024.4 expression, induction [2]: 0.69 fold | C02B4.2 nhr-17 expression, induction [2]: 4.68 fold | C06B3.7 expression, induction [2]: 4.95 fold | C07G3.2 irg-1 expression, induction [2]: 2.81 fold | C12C8.1 hsp-70 expression, induction [2]: 9.31 fold | C15F1.7 sod-1 expression, induction [2]: 1.69 fold | C29F7.2 expression, induction [2]: 7.54 fold | C31A11.5 oac-6 expression, induction [2]: 4.61 fold | C32D5.12 expression, induction [2]: 0.39 fold | C32H11.1 expression, induction [2]: 0.93 fold | C32H11.3 expression, induction [2]: 2.10 fold | C34G6.4 pgp-2 expression, induction [2]: 8.04 fold | C37C3.10 expression, induction [2]: 68.75 fold | C37H5.8 hsp-6 expression, induction [2]: 4.54 fold | C49G7.5 irg-2 expression, induction [2]: 14.15 fold | F08F8.5 numr-1 expression, induction [2]: 26.12 fold | F08H9.4 expression, induction [2]: 14.14 fold | F14F9.3 expression, induction [2]: 17.12 fold | F22B5.4 expression, induction [2]: 0.69 fold | F22H10.2 expression, induction [2]: 2.36 fold | F26A3.4 expression, induction [2]: 1.28 fold | F35E8.11 cdr-1 expression, induction [2]: 87.64 fold | F35G2.4 phy-2 expression, induction [2]: 1.60 fold | F37B12.2 gcs-1 expression, induction [2]: 12.12 fold | F43E2.8 hsp-4 expression, induction [2]: 31.03 fold | F44E5.5 expression, induction [2]: 8.59 fold | F49F1.6 expression, induction [2]: 2.32 fold | F49F1.7 expression, induction [2]: 2.34 fold | F49H6.13 expression, induction [2]: 18.14 fold | F54B8.4 expression, induction [2]: 4.73 fold | F55G11.2 expression, induction [2]: 2.21 fold | F59A7.1 clec-206 expression, induction [2]: 9.10 fold | F59B10.4 expression, induction [2]: 4.48 fold | H12D21.1 nspa-1 expression, induction [2]: 36.00 fold | H23N18.1 ugt-13 expression, induction [2]: 10.66 fold | H23N18.3 ugt-8 expression, induction [2]: 9.55 fold | K05B2.4 expression, induction [2]: 14.78 fold | K08F4.7 gst-4 expression, induction [2]: 12.53 fold | K09A9.1 nipi-3 expression, induction [2]: 4.14 fold | K10D11.2 expression, induction [2]: 11.43 fold | K10G4.3 expression, induction [2]: 5.63 fold | R03D7.6 gst-5 expression, induction [2]: 144.12 fold | R08H2.1 dhs-23 expression, induction [2]: 121.17 fold | R10E8.3 expression, induction [2]: 5.61 fold | T19D12.3 expression, induction [2]: 88.57 fold | T19H12.1 ugt-9 expression, induction [2]: 6.78 fold | T21E8.1 pgp-6 expression, induction [2]: 2.39 fold | T22B7.3 expression, induction [2]: 7.07 fold | T24C4.4 expression, induction [2]: 4.80 fold | T24E12.5 expression, induction [2]: 34.94 fold | T27E4.3 hsp-16.48 expression, induction [2]: 10.63 fold | T27E4.8 hsp-16.1 expression, induction [2]: 10.52 fold | T27F6.8 expression, induction [2]: 3.60 fold | T28C12.4 expression, induction [2]: 9.37 fold | W02D9.10 expression, induction [2]: 7.18 fold | Y22D7AL.5 hsp-60 expression, induction [2]: 2.52 fold | Y38E10A.15 nspe-7 expression, induction [2]: 3.39 fold | Y46H3A.2 hsp-16.41 expression, induction [2]: 6.06 fold | Y46H3A.3 hsp-16.2 expression, induction [2]: 6.32 fold | Y56A3A.33 expression, induction [2]: 3.94 fold | Y58A7A.5 expression, induction [2]: 9.18 fold | ZC376.7 atfs-1 expression, induction [2]: 3.43 fold | ZC443.6 ugt-16 expression, induction [2]: 25.67 fold | ZK697.6 gst-21 expression, induction [2]: 2.35 fold

CN(C)/N=N/c1ccc(-c2cn(Cc3ccccc3)cn2)cc1 [LK38]
MIC [1]: > 655 µM | MIC / EC [1]: > 97.8 | B0024.4 expression, induction [2]: 3.17 fold | C02B4.2 nhr-17 expression, induction [2]: 1.71 fold | C06B3.7 expression, induction [2]: 1.11 fold | C07G3.2 irg-1 expression, induction [2]: 2.65 fold | C12C8.1 hsp-70 expression, induction [2]: 0.53 fold | C15F1.7 sod-1 expression, induction [2]: 1.43 fold | C29F7.2 expression, induction [2]: 32.57 fold | C31A11.5 oac-6 expression, induction [2]: 9.73 fold | C32D5.12 expression, induction [2]: 3.71 fold | C32H11.1 expression, induction [2]: 18.31 fold | C32H11.3 expression, induction [2]: 11.99 fold | C34G6.4 pgp-2 expression, induction [2]: 4.68 fold | C37C3.10 expression, induction [2]: 2.39 fold | C37H5.8 hsp-6 expression, induction [2]: 1.74 fold | C49G7.5 irg-2 expression, induction [2]: 3.91 fold | F08F8.5 numr-1 expression, induction [2]: 1.76 fold | F08H9.4 expression, induction [2]: 1.05 fold | F14F9.3 expression, induction [2]: 6.65 fold | F22B5.4 expression, induction [2]: 4.88 fold | F22H10.2 expression, induction [2]: 0.89 fold | F26A3.4 expression, induction [2]: 1.16 fold | F35E8.11 cdr-1 expression, induction [2]: 136.66 fold | F35G2.4 phy-2 expression, induction [2]: 1.91 fold | F37B12.2 gcs-1 expression, induction [2]: 1.21 fold | F43E2.8 hsp-4 expression, induction [2]: 1.31 fold | F44E5.5 expression, induction [2]: 0.94 fold | F49F1.6 expression, induction [2]: 3.06 fold | F49F1.7 expression, induction [2]: 27.43 fold | F49H6.13 expression, induction [2]: 1.54 fold | F54B8.4 expression, induction [2]: 5.05 fold | F55G11.2 expression, induction [2]: 2.13 fold | F59A7.1 clec-206 expression, induction [2]: 56.72 fold | F59B10.4 expression, induction [2]: 3.99 fold | H12D21.1 nspa-1 expression, induction [2]: 0.84 fold | H23N18.1 ugt-13 expression, induction [2]: 7.19 fold | H23N18.3 ugt-8 expression, induction [2]: 35.45 fold | K05B2.4 expression, induction [2]: 25.19 fold | K08F4.7 gst-4 expression, induction [2]: 1.42 fold | K09A9.1 nipi-3 expression, induction [2]: 2.18 fold | K10D11.2 expression, induction [2]: 2.89 fold | K10G4.3 expression, induction [2]: 3.15 fold | R03D7.6 gst-5 expression, induction [2]: 21.05 fold | R08H2.1 dhs-23 expression, induction [2]: 243.00 fold | R10E8.3 expression, induction [2]: 1.97 fold | T19D12.3 expression, induction [2]: 1.91 fold | T19H12.1 ugt-9 expression, induction [2]: 8.16 fold | T21E8.1 pgp-6 expression, induction [2]: 3.69 fold | T22B7.3 expression, induction [2]: 1.08 fold | T24C4.4 expression, induction [2]: 1.30 fold | T24E12.5 expression, induction [2]: 2.60 fold | T27E4.3 hsp-16.48 expression, induction [2]: 0.91 fold | T27E4.8 hsp-16.1 expression, induction [2]: 0.90 fold | T27F6.8 expression, induction [2]: 3.28 fold | T28C12.4 expression, induction [2]: 8.72 fold | W02D9.10 expression, induction [2]: 0.89 fold | Y22D7AL.5 hsp-60 expression, induction [2]: 0.89 fold | Y38E10A.15 nspe-7 expression, induction [2]: 1.82 fold | Y46H3A.2 hsp-16.41 expression, induction [2]: 0.62 fold | Y46H3A.3 hsp-16.2 expression, induction [2]: 0.79 fold | Y56A3A.33 expression, induction [2]: 1.72 fold | Y58A7A.5 expression, induction [2]: 2.03 fold | ZC376.7 atfs-1 expression, induction [2]: 2.11 fold | ZC443.6 ugt-16 expression, induction [2]: 78.74 fold | ZK697.6 gst-21 expression, induction [2]: 47.19 fold | Dose dependence of rescue in liquid killing [3]: dose-dependent rescue
